In patent US8759504B2, “Cholinergic/serotoninergic receptor and uses thereof” (AbbVie Inc., priority 2007, dated 2014):
Entries after “also recorded” stand apart in the source; their conditions may differ. Read-outs that look alike come from different tables or passages of the source.

Assays:
[1] = target: T1, Chimera 2 (Homo sapiens, UniProt P36544, M226I/T225V); experiment: Two electrode voltage clamp in Xenopus oocytes (POETs), agonist and modulator responses; type: cell-based; design: expressed in transfected cells; host or cells: Xenopus laevis oocytes (transient, A2)
T1 sequence (P36544 with tags, fused parts or gaps T225V/M226I): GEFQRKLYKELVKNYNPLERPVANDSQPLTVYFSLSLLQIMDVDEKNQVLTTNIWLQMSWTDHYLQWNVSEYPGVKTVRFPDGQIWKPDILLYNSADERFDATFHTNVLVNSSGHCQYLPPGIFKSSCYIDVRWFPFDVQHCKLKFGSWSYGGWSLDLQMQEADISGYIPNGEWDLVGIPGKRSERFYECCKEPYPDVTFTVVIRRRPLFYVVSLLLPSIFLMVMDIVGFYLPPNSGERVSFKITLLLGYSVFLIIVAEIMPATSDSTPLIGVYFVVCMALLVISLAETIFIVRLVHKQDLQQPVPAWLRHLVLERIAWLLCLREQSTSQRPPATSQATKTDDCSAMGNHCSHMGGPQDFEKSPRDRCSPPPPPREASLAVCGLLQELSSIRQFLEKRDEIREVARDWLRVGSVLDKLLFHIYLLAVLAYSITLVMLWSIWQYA

[2] = target: T1, Chimera 2; experiment: [3H]A-585539 radioligand binding, HEK-293 membranes/homogenates; design: expressed in transfected cells; settings: increasing concentrations
[3] = target: T1, Chimera 2; experiment: Membrane potential imaging (FLIPR-FMP) in HEK-293 cells; type: cell-based; design: expressed in transfected cells; settings: for Modulation of submaximum agonist-evoked membrane potential response (words): FMP
[4] = target: T2, wild-type α7 nicotinic acetylcholine receptor (Homo sapiens, UniProt P36544); experiment: Two electrode voltage clamp in Xenopus oocytes, agonist and modulator responses; type: cell-based; settings: for Effect of modulator on ACh-evoked current (words): Xenopus oocytes
T2 construct: expressed in transfected cells; host or cells: Xenopus laevis oocytes
T2 sequence (P36544 23-502): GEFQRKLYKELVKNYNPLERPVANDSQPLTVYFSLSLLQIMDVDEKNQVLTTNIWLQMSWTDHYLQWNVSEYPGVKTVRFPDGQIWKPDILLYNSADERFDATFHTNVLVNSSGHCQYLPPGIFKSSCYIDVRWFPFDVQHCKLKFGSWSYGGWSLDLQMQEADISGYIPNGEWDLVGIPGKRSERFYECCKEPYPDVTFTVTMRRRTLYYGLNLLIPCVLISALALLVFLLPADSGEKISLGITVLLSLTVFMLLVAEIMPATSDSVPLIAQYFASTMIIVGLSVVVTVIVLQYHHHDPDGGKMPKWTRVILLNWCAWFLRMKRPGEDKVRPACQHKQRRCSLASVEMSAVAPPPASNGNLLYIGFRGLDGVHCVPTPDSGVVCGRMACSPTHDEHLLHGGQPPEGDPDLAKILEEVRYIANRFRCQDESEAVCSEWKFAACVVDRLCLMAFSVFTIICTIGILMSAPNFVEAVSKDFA

[5] = target: T3, rat brain α7* nicotinic acetylcholine receptors (Rattus norvegicus, UniProt Q05941); experiment: [3H]A-585539 radioligand binding, rat brain homogenates; settings: rat cortex, increasing concentrations
T3 construct: expressed both as a native (rat cortex) or α7/5-HT3 chimeric receptor; from tissue; host or cells: rat brain / rat cortex homogenates
T3 sequence (Q05941 23-502): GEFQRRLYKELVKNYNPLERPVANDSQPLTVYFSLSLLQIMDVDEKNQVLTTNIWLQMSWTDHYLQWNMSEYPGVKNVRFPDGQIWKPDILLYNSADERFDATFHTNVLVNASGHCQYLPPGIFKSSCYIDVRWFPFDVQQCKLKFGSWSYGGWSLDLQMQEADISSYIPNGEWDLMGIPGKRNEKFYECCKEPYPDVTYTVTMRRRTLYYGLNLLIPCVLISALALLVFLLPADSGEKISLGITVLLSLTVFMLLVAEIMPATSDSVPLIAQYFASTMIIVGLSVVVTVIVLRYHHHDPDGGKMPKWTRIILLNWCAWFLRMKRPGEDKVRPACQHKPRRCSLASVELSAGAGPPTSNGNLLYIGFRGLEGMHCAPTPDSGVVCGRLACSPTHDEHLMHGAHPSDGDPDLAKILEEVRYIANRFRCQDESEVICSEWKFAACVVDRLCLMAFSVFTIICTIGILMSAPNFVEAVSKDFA

[6] = target: T4, Chimera 1 (Homo sapiens, UniProt P36544, M226I/T225V); experiment: Two electrode voltage clamp in Xenopus oocytes (POETs), agonist and modulator responses; type: cell-based; design: expressed in transfected cells; host or cells: Xenopus laevis oocytes (transient, A1)
T4 sequence (P36544 with tags, fused parts or gaps T225V/M226I): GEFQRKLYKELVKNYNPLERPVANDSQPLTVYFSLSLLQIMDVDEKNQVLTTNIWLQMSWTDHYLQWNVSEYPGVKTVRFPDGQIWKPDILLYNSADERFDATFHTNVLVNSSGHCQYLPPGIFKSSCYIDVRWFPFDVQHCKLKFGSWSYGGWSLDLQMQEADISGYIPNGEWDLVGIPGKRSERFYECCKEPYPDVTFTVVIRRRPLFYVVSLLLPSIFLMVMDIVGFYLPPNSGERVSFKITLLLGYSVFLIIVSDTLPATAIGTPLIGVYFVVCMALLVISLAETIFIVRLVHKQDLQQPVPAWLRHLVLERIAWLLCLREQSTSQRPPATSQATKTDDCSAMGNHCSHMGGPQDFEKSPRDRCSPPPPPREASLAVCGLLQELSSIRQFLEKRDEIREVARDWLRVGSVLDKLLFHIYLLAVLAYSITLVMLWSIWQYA

[7] = target: T4, Chimera 1; experiment: Membrane potential imaging (FLIPR-FMP) in HEK-293 cells; type: cell-based; design: expressed in transfected cells; settings: for Modulation of submaximum agonist-evoked membrane potential response (words): FMP
[8] = target: T5, wild-type human 5-HT3A receptors (Homo sapiens, UniProt P46098); experiment: Two electrode voltage clamp in Xenopus oocytes, agonist and modulator responses; type: cell-based
T5 construct: expressed in transfected cells; host or cells: Xenopus laevis oocytes
T5 sequence (P46098 1-484 isoform P46098-4): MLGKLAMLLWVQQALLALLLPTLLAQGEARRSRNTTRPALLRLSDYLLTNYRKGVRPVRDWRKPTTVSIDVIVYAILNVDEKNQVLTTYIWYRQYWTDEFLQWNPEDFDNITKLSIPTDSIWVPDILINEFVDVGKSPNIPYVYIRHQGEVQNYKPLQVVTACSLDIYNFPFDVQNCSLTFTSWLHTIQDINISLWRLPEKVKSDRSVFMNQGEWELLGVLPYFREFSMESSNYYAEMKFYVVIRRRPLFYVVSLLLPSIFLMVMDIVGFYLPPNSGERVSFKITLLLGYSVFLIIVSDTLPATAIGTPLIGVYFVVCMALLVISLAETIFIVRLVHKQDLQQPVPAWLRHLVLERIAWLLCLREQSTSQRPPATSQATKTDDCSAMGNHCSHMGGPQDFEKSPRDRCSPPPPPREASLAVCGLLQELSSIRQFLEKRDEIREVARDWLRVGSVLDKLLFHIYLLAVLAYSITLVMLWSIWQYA

[9] = target: T1, Chimera 2; experiment: Whole cell patch clamp in HEK-293 cells; type: cell-based; design: expressed in transfected cells
[10] = target: T6, Chimera 8 (Homo sapiens, UniProt P46098, I238M/V237T); experiment: Two electrode voltage clamp in Xenopus oocytes, reverse 5HT3-α7 chimera; type: cell-based
T6 construct: expressed in transfected cells; host or cells: Xenopus laevis oocytes
T6 sequence (P46098 with tags, fused parts or gaps isoform P46098-4 V243T/I244M): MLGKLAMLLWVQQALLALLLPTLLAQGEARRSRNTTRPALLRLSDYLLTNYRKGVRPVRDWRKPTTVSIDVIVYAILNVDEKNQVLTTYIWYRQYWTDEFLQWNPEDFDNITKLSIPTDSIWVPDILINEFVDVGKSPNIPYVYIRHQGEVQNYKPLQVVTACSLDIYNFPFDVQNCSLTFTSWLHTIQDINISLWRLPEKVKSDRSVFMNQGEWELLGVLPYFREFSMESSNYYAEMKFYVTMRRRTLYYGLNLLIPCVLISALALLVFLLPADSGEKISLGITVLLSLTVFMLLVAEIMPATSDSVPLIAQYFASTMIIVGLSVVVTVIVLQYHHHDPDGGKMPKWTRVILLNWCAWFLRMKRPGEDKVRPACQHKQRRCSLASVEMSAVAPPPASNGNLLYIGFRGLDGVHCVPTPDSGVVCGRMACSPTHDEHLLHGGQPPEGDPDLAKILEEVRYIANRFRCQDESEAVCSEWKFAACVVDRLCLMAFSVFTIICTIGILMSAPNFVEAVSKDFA
Method: Xenopus laevis oocytes were prepared and injected as previously described {Eisele, 1993 #2; Krause, 1998 #4}. Briefly, ovaries were harvested from female Xenopus. Isolation of the oocytes was obtained by enzymatic dissociation using collagenase type I in a medium deprived of calcium and by gentle mechanical agitation for approximately 3 hours. Oocytes stage 5-6 were manually selected on the next day and injected into the nucleus with 2 ng plasmid containing the cDNA of interest. Oocytes were then placed in a 96 well microtiter plate in Barth solution and used for electrophysiological investigation two to five days later. All recordings were performed at 18° C. and cells were superfused with OR2 medium containing in mM:NaCl 82.5, KCI 2.5, HEPES 5, CaCl2.2H2O 2.5, MgCl2.6H2O 1, pH 7.4, and 0.5 μM atropine was added to prevent possible activation of endogenous muscarinic receptors. Unless indicated cells were held at −100 mV using a two electrode voltage clamp apparatus connected to a Geneclamp amplifier (Molecular Devices). Data were captured and analyzed using data acquisition and analysis software. […] Values indicated throughout the text are given with their respective standard error of the mean (SEM). For statistical analysis we used the unpaired, two-tailed Student's T test using either excel (Microsoft) or Matlab (Mathworks Inc.).
To examine the putative role of the transmembrane domains, a reverse chimera comprising the 5-HT3 ligand binding domain and the transmembrane domain of α7 was designed and constructed. […] See FIGS. 13A and B. To best evaluate a putative allosteric modulation, currents evoked by low agonist concentration were also investigated, but exposure to either NS-1738 or PNU-120596 caused no detectable modification of the response amplitude or time course. […] Data not shown. […] The cartoon above the traces in FIG. 13 illustrates the schematic structure of a single subunit inserted into the membrane. The gray line corresponds to the extracellular 5HT3 receptor sequence, whereas the dark line indicates the α7 segments. Despite the low yield of expression, significant and reproducible currents were evoked by brief exposure to 5-HT.

[11] = HEK-293 cells, listed as 5-hydroxyindole
[12] = read-out: Maximum efficacy (mean±S.E.M.), agonist-evoked current
[13] = HEK293, read-out: Maximum efficacy (mean±S.E.M.), membrane potential imaging, HEK-293 cells
[14] = read-out: Agonist potency, membrane potential imaging: EC50 (95% C.I.), HEK-293 cells

Oc1ccc2[nH]ccc2c1 [5-HI, 5-hydroxyindole]
Peak current amplitude evoked by compound alone, normalized to 10 μM ACh ([1]; 1 mM): 5.4+/−1.8% | ng of ACh curve after modulator ([1]; 1 mM 5-HI): 1.35 ± 0.25 | Peak current amplitude evoked by compound alone, normalized to 10 μM ACh ([1]; 3 mM): 37.8+/−11.6% | Percentage potentiation of submaximum agonist-evoked responses (mean±S.E.M.) ([1]; 10-30 μM ACh): 262±39% | Direct current activation by modulator alone ([1]; Xenopus oocytes): could also evoke responses in Chimera 2; also recorded: evoked unique agonist-like current | EC50 ([1]; read-out: Positive allosteric modulation potency, two electrode voltage clamp: EC50 (95% C.I.), submaximum ACh (10-30 μM)-evoked response): 496 µM | Competition / displacement of [3H]A-585539 binding [2]: neither compound effectively displaced the binding | Modulation of submaximum agonist-evoked membrane potential response (words) ([3]; HEK-293 cells): potentiated submaximum NS6784 evoked responses; also recorded: effective as positive allosteric modulators; also recorded: effective in both Chimeras | Modulation of submaximum agonist-evoked membrane potential response (words) [3, 11]: able to potentiate both Chimeras | EC50 ([3]; read-out: FMP imaging: positive allosteric modulation EC50 (95% C.I.), submaximum NS6784 (60-70 nM)): 324 µM | Maximum positive allosteric modulation efficacy ([3]; submaximum NS6784 60-70 nM): 177±8% | EC50 [4]: 667 µM | Percentage potentiation of submaximum agonist-evoked responses (mean±S.E.M.) ([4]; 100 μM ACh): 516±59% | ng of ACh curve after modulator ([4]; 1 mM 5-HI): 1.97 ± 0.84 | EC50 ([4]; Positive allosteric modulation potency, two electrode voltage clamp: EC50 (95% C.I.), submaximum ACh (100 μM)-evoked response): 500 to 700 µM | Effect of modulator on ACh-evoked current (words) [4]: substantial increase in the amplitude of the subsequent ACh-evoked current | Competition / displacement of [3H]A-585539 binding [5]: neither compound effectively displaced the binding | Percentage potentiation of submaximum agonist-evoked responses (mean±S.E.M.) ([6]; 100 μM ACh): 428±23% | ng of ACh curve after modulator ([6]; 1 mM 5-HI): 1.4 ± 0.13 | Effect of modulator on ACh-evoked current (words) ([6]; Xenopus oocytes): positive modulation is still observed | EC50 ([6]; read-out: Positive allosteric modulation potency, two electrode voltage clamp: EC50 (95% C.I.), submaximum ACh (100 μM)-evoked response): 500 µM | Modulation of submaximum agonist-evoked membrane potential response (words) ([7]; HEK-293 cells): potentiated the submaximum α7 agonist (NS6784) evoked membrane potential depolarization; also recorded: effective in both Chimeras | Modulation of submaximum agonist-evoked membrane potential response (words) [7, 11]: able to potentiate both Chimeras | EC50 ([7]; read-out: FMP imaging: positive allosteric modulation EC50 (95% C.I.), submaximum NS6784 (120-200 nM)): 234 µM | Maximum positive allosteric modulation efficacy ([7]; submaximum NS6784 120-200 nM): 204±9% | Percentage potentiation of submaximum agonist-evoked responses (mean±S.E.M.) ([8]; 1-3 μM 5-HT): 58±9% | Effect of modulator on agonist (5-HT)-evoked current ([8]; Xenopus oocytes): Neither compound increased the responses | inhibition at 10000 µM ([8]; at 10,000 μM (10 mM), read-out: Observed % inhibitory effect on submaximum 5-HT-evoked response): ~40% | Directly evoked peak response normalized to 100 μM ACh ([9]; 10 mM): 26.4±7.1% | Directly evoked total charge (integral) normalized to 100 μM ACh ([9]; 10 mM): 52.4±10.3% | Direct current activation by modulator alone ([9]; genistein 100 μM, 5-HI 10 mM): Qualitatively similar responses were also obtained | Positive allosteric modulation of ACh-evoked current ([9]; genistein 30-50 μM, 5-HI 1 mM): effective as positive allosteric modulators

NCCc1c[nH]c2ccc(O)cc12 [5-HT, 5-hydroxytryptamine]
Agonist-evoked current [10]: significant inward currents | Emax ([8]; Xenopus oocytes, read-out: Maximum activation): 100%

C[N+](C)(C)CCO [Choline, choline]
Electrophysiology (POETs) pEC50 ± SEM [1]: 3.7 ± 0.08 | EC50 ([1]; read-out: Agonist potency, two electrode voltage clamp, Xenopus oocyte: EC50 (95% C.I.)): 214 µM | Emax [1, 12]: 78 ± 4% | Emax [3, 13]: 101 ± 6% | FLIPR-FMP pEC50 ± SEM ([3]; HEK-293 cells): 4.4 ± 0.04 | EC50 [3, 14]: 37.8 µM | EC50 ([4]; Agonist potency, two electrode voltage clamp, Xenopus oocyte: EC50 (95% C.I.), peak current amplitude): 1120 µM | Emax [4, 12]: 81 ± 4% | Electrophysiology (POETs) pEC50 ± SEM ([6]; Xenopus oocytes): 2.9 ± 0.06 | EC50 ([6]; read-out: Agonist potency, two electrode voltage clamp, Xenopus oocyte: EC50 (95% C.I.), peak current amplitude): 1510 µM | Emax [6, 12]: 91 ± 7% | Emax [7, 13]: 132 ± 9% | FLIPR-FMP pEC50 ± SEM ([7]; HEK-293 cells): 2.9 ± 0.06 | EC50 [7, 14]: 285 µM

CC[C@H](C)[C@H]1O[C@]2(CC[C@@H]1C)C[C@@H]1C[C@@H](C/C=C(\C)[C@@H](O[C@H]3C[C@H](OC)[C@@H](O[C@H]4C[C@H](OC)[C@@H](O)[C@H](C)O4)[C@H](C)O3)[C@@H](C)/C=C/C=C3\CO[C@@H]4[C@H](O)C(C)=C[C@@H](C(=O)O1)[C@]34O)O2 [IVM, ivermectin]
ng of ACh curve after modulator ([1]; 30 μM IVM): 1.1 ± 0.12 | ng of ACh curve after modulator ([4]; 30 μM IVM): 1.4 ± 0.16 | Effect of modulator on ACh-evoked current (words) [4]: substantial increase in the amplitude of the subsequent ACh-evoked current | ng of ACh curve after modulator ([6]; 30 μM IVM): 1.8 ± 0.05 | Effect of modulator on ACh-evoked current (words) ([6]; Xenopus oocytes): absence of effects
